Test [1] concerns ECa-109. In words: Disruption of mitochondrial membrane potential in human EC109 cells after 24 hrs by JC1 staining-based flow cytometric analysis. Type of test: functional, cell-based. (In general: In flow cytometry, cells or beads pass a laser one at a time.)
For test [2], the system named is ECa-109 cell line. In words: Induction of apoptosis in human EC109 cells assessed as nuclear fragmentation at 1.25 to 20 uM after 24 hrs by Hoechst 33258 staining-based fluorescence microscopic analysis. The format is functional, cell-based.
Test [3] can be described thus: Cell cycle arrest in human EC109 cells assessed as accumulation at G0/G1 phase at 10 uM after 12 hrs by propidium iodide staining-based flow cytometric analysis (reference value: 50.87%). Particulars: ECa-109. Type of test: functional.
Test [4] can be described thus: Cell cycle arrest in human EC109 cells assessed as accumulation at G2/M phase at 5 uM after 12 hrs by propidium iodide staining-based flow cytometric analysis (reference value: 13.72%). Type of test: functional. Particulars: ECa-109.
The nature of test [5]: Cell cycle arrest in human EC109 cells assessed as accumulation at G2/M phase at 2.5 uM after 12 hrs by propidium iodide staining-based flow cytometric analysis (reference value: 13.72%). The format is functional. Particulars: ECa-109.
Test [6] concerns ECa-109 cell line. The test is described as follows: Induction of apoptosis in human EC109 cells assessed as increase in early apoptotic cells at 2.5 to 40 uM by annexin V-FITC/propidium iodide staining-based flow cytometric analysis. The format is functional, cell-based. The conditions noted are these: TDE = time-dependent effect.
For test [7], the system named is ECa-109 cell line. The test is described as follows: Induction of apoptosis in human EC109 cells assessed as late apoptotic cells at 5 uM after 24 hrs by annexin V-FITC/propidium iodide staining-based flow cytometric analysis (reference value: 2.5%). The format is functional.
The subject of test [8] is ECa-109 cell line. The test is described as follows: Induction of apoptosis in human EC109 cells assessed as late apoptotic cells at 2.5 uM after 24 hrs by annexin V-FITC/propidium iodide staining-based flow cytometric analysis (reference value: 2.5%). The format is functional.
Test [9] deals with ECa-109 cell line. The test is described as follows: Induction of apoptosis in human EC109 cells assessed as live cells at 10 uM after 12 hrs by annexin V-FITC/propidium iodide staining-based flow cytometric analysis (reference value: 92.1%). The format is functional.
Test [10] concerns ECa-109 cell line. In words: Induction of apoptosis in human EC109 cells assessed as early apoptotic cells at 10 uM after 12 hrs by annexin V-FITC/propidium iodide staining-based flow cytometric analysis (reference value: 6.1%). The format is functional.
The subject of test [11] is ECa-109 cell line. The test is described as follows: Induction of apoptosis in human EC109 cells assessed as damaged cells at 2.5 uM after 12 hrs by annexin V-FITC/propidium iodide staining-based flow cytometric analysis (reference value: 0.4%). The format is functional.
Test [12] relates to ECa-109 cell line. In words: Induction of apoptosis in human EC109 cells assessed as increase in late apoptotic cells at 2.5 to 40 uM by annexin V-FITC/propidium iodide staining-based flow cytometric analysis. Type of test: functional, cell-based. Particulars: TDE = time-dependent effect.

Each structure is given as a SMILES string. Calls of active or inactive are those of the source. The rule behind the calls is not given here.

For the molecule `C[C@]12CC[C@H](O)CC1=CC[C@@H]1[C@@H]2CC[C@]2(C)c3nc4ncnn4c(-c4cccc(-c5c6c(nc7ncnn57)[C@@]5(C)CC[C@H]7[C@@H](CC=C8C[C@@H](O)CC[C@@]87C)[C@@H]5C6)c4)c3C[C@@H]12`, the Activity entry is “Dose-dependent effect” in test [1]; 48.6% in test [3]; 20.8% in test [4]; 17.9% in test [5]; “tde” in [6]; 12.2% in [7]. In addition, the Activity is 2.5% in test [8]; 54% in test [9]; 19.9% in [10]; 1.7% in test [11]; “tde” in test [12]. Also, the outcome in test [2] was Active.

The record behind these values is ChEMBL document CHEMBL2434882, “A novel [1,2,4] triazolo [1,5-a] pyrimidine-based phenyl-linked steroid dimer: synthesis and its cytotoxic activity” (Eur J Med Chem, 2013).
